According to patent publication US20080200531A1, “CDKI pathway inhibitors as inhibitors of tumor cell growth” (priority 2006, published 2008):
Where two headings read alike, the source gives them in different places.

What was measured:
[1] = system: p21-responsive genes (IPTG-induced p21); test: Affymetrix U133 2.0 Plus microarray analysis of p21-responsive genes in HT1080 p21-9; type: cell-based, human; conditions: for fold induction at 20 µM: Homo sapiens, HT-1080, 72 h
Procedure: HT1080 p21-9 cell line, which carries IPTG-inducible CDKI p21, was either untreated, or treated for 72 hrs with 100 μM IPTG (which induces p21), or with CDKI pathway inhibitors SNX9-1 (20 μM, SNX9 family) or SNX14 (80 μM, unrelated to SNX9) alone or in combination with IPTG. RNA was extracted after each treatment and used for hybridization with Affymetrix U133 2.0 Plus microarrays, containing 56,000 probe sets corresponding to essentially all the human genes. The microarray data were analyzed using Gene Spring software (Agilent). […] The first group (p21-induced genes, top panels) represents 1124 probe sets corresponding to genes that were induced at least 2-fold upon treatment with p21-inducing IPTG. The second group (p21-inhibited genes, bottom panels) represents 435 probe sets corresponding to genes that were inhibited at least 4-fold upon IPTG treatment. […] The left panels show the response of the two groups of genes to IPTG (p21 induction) in the absence of SNX9-class compounds, with the first group induced and the second group inhibited by IPTG. The middle panels show the response of the same genes to IPTG in the presence of SNX9-1 or SNX14 (added with or without IPTG). Both the induction and the inhibition of gene expression by IPTG appear much reduced in the presence of SNX9-1 or SNX14, as expected from their activity as CDKI pathway inhibitors.

HT1080 p21-9 cells = test: FACS analysis of DNA content and GF7 mitotic staining; type: cell-based, human
Source text: The combination of p21 and SNX9-class compounds leads to both G1 and G2/M arrest, at the levels expected for the combined effects of p21 and SNX9 (FIG. 6).

HT1080 fibrosarcoma = test: 3-day growth inhibition assay (Hoechst 33342), HT1080; type: cell-based; conditions: Homo sapiens, HT-1080, 72 h, 3 days, read-out: growth inhibition (decrease in cell number relative to untreated cells)
Procedure: (§1) The assays were carried out in 96-well plates, in triplicates; the plated cell numbers for each cell line were determined in preliminary experiments to assure exponential growth over the 3-day period of the assay. The cell numbers were measured by staining DNA of attached cells with Hoechst 33342, and the results for each dose were expressed as the decrease in cell number relative to untreated cells. For some of the tumor/normal cell line combinations, the assays were repeated using CellTiter-Glo viability assay (Promega), with the same results.

[2] = system: normal fibroblasts (WI-38, BJ-EN); test: 3-day growth inhibition assay (Hoechst 33342), normal cells; type: cell-based, human; conditions: 5 μM; 3 days
Procedure: as §1

[3] = system: NFκB p50 and p65 subunits; test: TransAM NFκB p65 and p50 Chemi Transcription Factor Assay (oligonucleotide binding); type: cell-based; conditions: TNFα-induced or basal
Source text: We also tested if these compounds could act as the inhibitors of NFκB, by measuring cellular levels of p50 or p65 subunits binding oligonucleotides containing NFκB consensus binding site, using ACTIVE MOTIF TransAM™ NFκB p65 Chemi and NFκB p50 Chemi Transcription Factor Assay Kits.

[4] = system: p21-induced transcription from the NK4 promoter; test: NK4 promoter-firefly luciferase reporter in HT1080 p21-9 cells; type: cell-based, human; conditions: 20 μM SNX-9
Procedure: In this experiment, HT1080 p21-9 cells that express firefly luciferase from a CDKI-responsive promoter of cellular NK4 gene were cultured with IPTG for two days, which is sufficient for near-maximal induction of NK4 (Poole et al., supra).

[5] = SNX9-1 20 μM, SNX14 80 μM, 72 hrs

Structure (SMILES)	fold induction at 20 µM ([1]; read-out: Fold induction by IPTG, CD44, probe 212063_at, SNX14 80 μM, SNX9-1 20 μM, control 1.21)	fold induction at 20 µM ([1]; read-out: Fold induction by IPTG, CLTB, probe 211043_s_at, SNX14 80 μM, SNX9-1 20 μM, control 1.32)	fold induction at 20 µM ([1]; read-out: Fold induction by IPTG, FLJ13111, probe 218148_at, SNX14 80 μM, SNX9-1 20 μM, control 1.27)	fold induction at 20 µM ([1]; read-out: Fold induction by IPTG, KRT8, probe 209008_x_at, SNX14 80 μM, SNX9-1 20 μM, control 1.97)	fold induction at 20 µM ([1]; read-out: Fold induction by IPTG, LGALS3, probe 208949_s_at, SNX14 80 μM, SNX9-1 20 μM, control 3.74)	fold induction at 20 µM ([1]; read-out: Fold induction by IPTG, NK4, probe 203828_s_at, SNX14 80 μM, SNX9-1 20 μM, control 7.22)	fold induction at 20 µM ([1]; read-out: Fold induction by IPTG, SLC22A18, probe 204981_at, SNX14 80 μM, SNX9-1 20 μM, control 2.46)	fold induction at 20 µM ([1]; read-out: Fold induction by IPTG, SPTBN1, probe 212071_s_at, SNX14 80 μM, SNX9-1 20 μM, control 1.24)	fold induction at 20 µM ([1]; read-out: Fold induction by IPTG, SPTBN1, probe 226765_at, SNX14 80 μM, SNX9-1 20 μM, control 1.21)	induction and inhibition of gene expression by IPTG in the presence of compound (1124 p21-induced, 435 p21-inhibited probe sets) [1, 5]	induction by p21 of genes that are markers of cancer intractability [1, 5]	response of p21-induced and p21-inhibited genes to compound in the absence of IPTG ([1]; SNX9-1 20 μM, SNX14 80 μM, 72 hrs, weaker than IPTG)	mitotic fraction (GF7 antibody staining) (HT1080 p21-9 cells; SNX9-treated cells)	G2/M fraction (FACS analysis of DNA content) (HT1080 p21-9 cells; SNX9 alone)	inhibition at 5 µM (HT1080 fibrosarcoma) [%]	growth inhibition of normal cells [2]	NFκB activity (p50 or p65 binding to NFκB consensus oligonucleotide) [3]	induction of NK4-luciferase by p21, compound added after two days of IPTG treatment (reversal) [4]	induction of NK4-luciferase by p21, compound added simultaneously with IPTG [4]
NCCc1c[nH]c2c(Cl)cc(Cl)cc12 [SNX9-1]	1.03	0.95	0.98	0.81	1.33	1.6	1.34	1.24	1.09	much reduced	inhibited their induction	most of p21-induced genes are induced by SNX9-1 and SNX14 and most of p21-inhibited genes are inhibited							
Cc1[nH]c2c(Cl)cccc2c1CCN [SNX9]													increase in the mitotic fraction	pronounced increase in the G2/M fraction	~100	no effect on normal cells	no significant effect	reverses CDKI-induced transcription	decreased the induction of NK4-luciferase by p21
